From patent publication US4849207A, “Porphyrin derivatives” (Nihon Medi-Physics Co., Ltd., priority 1985, dated 1989)

Assays:
[1] = test system: pancreatic cancer; experiment: Scintigraphy in cancer-bearing hamster; format: in vivo; settings: 300 μCi i.v., 72 and 96 hours after administration
Protocol: (§1) Scintigraphy was obtained 72 and 96 hours after the administration by the use of a gamma-camera equipped with a medium energy high resolution type collimator.

[2] = test system: tumor; experiment: Distribution in cancer-bearing and inflammation-induced hamsters, tumor to tissue
Protocol: as §1

[3] = test system: inflammation (turpentine oil induced); experiment: Distribution in cancer-bearing and inflammation-induced hamsters, inflammation to tissue; settings: 72 hour post-injection
Protocol: as §1

[4] = test system: inflammation (croton oil induced); experiment: Distribution in inflammation-induced rats, inflammation to tissue; format: in vivo, SD rats
Protocol: SD rats of about 200 grams in bodyweight received croton oil (0.1 ml) at the right hind leg subcutaneously to induce inflammation. […] The radioactivity level ratio between the inflamation and each tissue was determined.

[5] = test system: pancreatic cancer; experiment: Distribution of a radioactive diagnostic agent in cancer-bearing hamster (cancer/organ radioactivity level ratio); settings: 300 μCi i.v., 96 hours after administration
Protocol: With lapse of time, the animals were sacrificed, and the organs were extracted and subjected to measurement of radioactivity and weight, from which the radioactivity level ratio between the cancer and each organ was determined.
With lapse of time, the animals were sacrificed, and the ogans were extracted and subjected to measurement of radioactivity and weight, from which the radioactivity level ratio between the cancer and each organ was determined.

[6] = 72 hour post-injection, mean and s.d. for 3 animals, or mean for 2 animals
[7] = hamster, mean and s.d. for 3 animals, or mean for 2 animals
[8] = SD rat, 72 hour post-injection, mean and s.d. for 3 animals

2-[1-(^111 In-diethylenetriamine-tetraacetic acid-acetyloxyethane)oxyethyl]-4-[1-(2-hydroxyethyl)oxyethyl] Ga-deuteroporphyrin [^111 In--monoDTPA--EG Ga--DP]
scintigraphic imaging of the locus of cancer [1]: the locus of cancer could be clearly imaged at both stages | imaging of tumor compared with ^67 Ga citrate (in words) ([2]; 72 hour post-injection): superior to ^67 Ga citrate | Tumor to tissue concentration ratio: Blood [2, 6]: 55.75 ± 10.61 | Tumor to tissue concentration ratio: Heart [2, 6]: 1.14 ± 0.28 | Tumor to tissue concentration ratio: Kidney [2, 6]: 0.79 ± 0.08 | Tumor to tissue concentration ratio: Liver [2, 6]: 0.21 ± 0.06 | Tumor to tissue concentration ratio: Lung [2, 6]: 0.52 ± 0.33 | Tumor to tissue concentration ratio: Muscle [2, 6]: 22.16 ± 6.53 | Tumor to tissue concentration ratio: Spleen [2, 6]: 0.16 ± 0.03 | affinities to tumor and inflammation (in words) ([2]; from Table 5, compared with each other): nearly equal in affinities to tumor and inflammation | imaging of inflammation compared with ^67 Ga citrate (in words) [3]: inferior to ^67 Ga citrate | Inflammation to tissue concentration ratio: Blood [3, 7]: 22.96 ± 9.56 | Inflammation to tissue concentration ratio: Heart [3, 7]: 0.49 ± 0.26 | Inflammation to tissue concentration ratio: Kidney [3, 7]: 0.33 ± 0.13 | Inflammation to tissue concentration ratio: Liver [3, 7]: 0.21 ± 0.16 | Inflammation to tissue concentration ratio: Lung [3, 7]: 0.21 ± 0.14 | Inflammation to tissue concentration ratio: Muscle [3, 7]: 8.71 ± 2.98 | Inflammation to tissue concentration ratio: Spleen [3, 7]: 0.06 ± 0.01 | Inflammation to tissue concentration ratio: Blood [4, 8]: 185.25 ± 82.70 | Inflammation to tissue concentration ratio: Heart [4, 8]: 2.40 ± 0.63 | Inflammation to tissue concentration ratio: Kidney [4, 8]: 1.42 ± 0.35 | Inflammation to tissue concentration ratio: Liver [4, 8]: 0.14 ± 0.04 | Inflammation to tissue concentration ratio: Lung [4, 8]: 1.43 ± 0.32 | Inflammation to tissue concentration ratio: Muscle [4, 8]: 19.23 ± 10.45 | Inflammation to tissue concentration ratio: Spleen [4, 8]: 0.18 ± 0.03 | accumulation in inflammation compared with ^67 Ga citrate (in words) ([4]; from Table 6): much lesser accumulation in inflammation than ^67 Ga citrate | Cancer/Blood radioactivity level ratio [5]: 61.89 | Cancer/Heart radioactivity level ratio [5]: 3.41 | Cancer/Kidney radioactivity level ratio [5]: 0.91 | Cancer/Liver radioactivity level ratio [5]: 0.53 | Cancer/Lung radioactivity level ratio [5]: 1.33 | Cancer/Spleen radioactivity level ratio [5]: 0.43
